biological target: D(2) dopamine receptor (Rattus norvegicus, UniProt P61169)
Sequence (P61169 whole entry): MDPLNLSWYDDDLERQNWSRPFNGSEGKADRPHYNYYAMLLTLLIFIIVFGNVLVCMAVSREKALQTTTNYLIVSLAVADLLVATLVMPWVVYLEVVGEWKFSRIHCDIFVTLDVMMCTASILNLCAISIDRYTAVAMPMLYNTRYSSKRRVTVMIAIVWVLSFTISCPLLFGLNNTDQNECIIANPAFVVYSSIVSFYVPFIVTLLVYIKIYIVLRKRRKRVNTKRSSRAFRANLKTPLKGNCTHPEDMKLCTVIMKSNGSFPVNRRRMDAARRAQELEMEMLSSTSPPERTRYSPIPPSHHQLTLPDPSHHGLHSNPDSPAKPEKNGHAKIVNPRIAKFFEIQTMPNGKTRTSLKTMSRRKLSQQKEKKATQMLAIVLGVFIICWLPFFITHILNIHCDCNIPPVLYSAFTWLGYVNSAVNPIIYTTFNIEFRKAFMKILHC

SMILES | Ki
CCN1CCC[C@H]1CNC(=O)c1cc(S(=O)(=O)CC)ccc1OC [Sultopride] | 2.4 nM
COC(=O)[C@@H]1[C@H]2C[C@H]3c4[nH]c5ccccc5c4CCN3C[C@@H]2CC[C@@H]1O [yohimbic acid methyl ester] | 158 nM

Next, values leading:

Ki | SMILES
15 nM | COc1ccc2c(c1)N(C[C@@H](C)CN(C)C)c1ccccc1S2
77 nM | CCN(CC)CCNC(=O)c1cc(S(C)(=O)=O)ccc1OC [CAS_51012-32-9]
8790 nM | COc1cc2nc(N3CCN(C(=O)c4ccco4)CC3)nc(N)c2cc1OC [[3H]-Minipress]

From BindingDB's records for doi:10.1016/0006-8993(87)90040-0 (St, Marianna University School of Medicine, 1987)
